Results from US9096560B2, “5-heterocyclylalkyl-3-hydroxy-2-phenylcyclopent-2-enones as herbicides” (Syngenta Limited, priority 2008, dated 2015).

Key:
Format in all cases: in vivo
[1] = system: Echinochloa crus-galli (ECHCG); assay: Example B post-emergence herbicidal test, ECHCG; conditions: Echinochloa crus-galli, 312 h, rate 250 g/ha, evaluated after 13 days, scale 0-100, read-out: Post-emergence activity ECHCG (100=total damage to plant; 0=no damage to plant)
Description: (§1) Seeds of a variety of test species were sown in standard soil in pots. After cultivation for one day (pre-emergence) or after 8 days cultivation (post-emergence) under controlled conditions in a glasshouse (at 24/16° C., day/night; 14 hours light; 65% humidity), the plants were sprayed with an aqueous spray solution derived from the formulation of the technical active ingredient in acetone/water (50:50) solution containing 0.5% Tween 20 (polyoxyethelyene sorbitan monolaurate, CAS RN 9005-64-5). The test plants were then grown in a glasshouse under controlled conditions in a glasshouse (at 24/16° C., day/night; 14 hours light; 65% humidity) and watered twice daily. After 13 days for pre and post-emergence, the test was evaluated (100=total damage to plant; 0=no damage to plant). Lolium perenne (LOLPE), Alopecurus myosuroides (ALOMY), Echinochloa crus-galli (ECHCG), Avena fatua (AVEFA) Post-Emergence Activity

[2] = system: Alopecurus myosuroides (ALOMY); assay: Example B post-emergence herbicidal test, ALOMY; conditions: Alopecurus myosuroides, 312 h, rate 250 g/ha, evaluated after 13 days, scale 0-100, read-out: Post-emergence activity ALOMY (100=total damage to plant; 0=no damage to plant)
Description: as §1

Lolium perenne (LOLPE) [3] = assay: Example B post-emergence herbicidal test, LOLPE; conditions: Lolium perenne, 312 h, rate 250 g/ha, evaluated after 13 days, scale 0-100, read-out: Post-emergence activity LOLPE (100=total damage to plant; 0=no damage to plant)
Description: as §1

Avena fatua (AVEFA) [4] = assay: Example B post-emergence herbicidal test, AVEFA; conditions: Avena fatua, 312 h, rate 250 g/ha, evaluated after 13 days, scale 0-100, read-out: Post-emergence activity AVEFA (100=total damage to plant; 0=no damage to plant)
Description: as §1

Avena fatua (AVEFA) [5] = assay: Example B pre-emergence herbicidal test, AVEFA; conditions: Avena fatua, 312 h, rate 250 g/ha, evaluated after 13 days, 100=total damage to plant, 0=no damage to plant
Description: as §1, with “Pre-Emergence” for “Post-Emergence”

Lolium perenne (LOLPE) [6] = assay: Example B pre-emergence herbicidal test, LOLPE; conditions: Lolium perenne, 312 h, rate 250 g/ha, evaluated after 13 days, 100=total damage to plant, 0=no damage to plant
Description: as §1, with “Pre-Emergence” for “Post-Emergence”

[7] = system: Echinochloa crus-galli (ECHCG); assay: Example B pre-emergence herbicidal test, ECHCG; conditions: Echinochloa crus-galli, 312 h, rate 250 g/ha, evaluated after 13 days, 100=total damage to plant, 0=no damage to plant
Description: as §1, with “Pre-Emergence” for “Post-Emergence”

[8] = system: Alopecurus myosuroides (ALOMY); assay: Example B pre-emergence herbicidal test, ALOMY; conditions: Alopecurus myosuroides, 312 h, rate 250 g/ha, evaluated after 13 days, 100=total damage to plant, 0=no damage to plant
Description: as §1, with “Pre-Emergence” for “Post-Emergence”

Structure (SMILES) | pest or weed control at 250 g/ha [1] | pest or weed control at 250 g/ha [2] | pest or weed control at 250 g/ha (Lolium perenne (LOLPE) [3]) | pest or weed control at 250 g/ha (Avena fatua (AVEFA) [4]) | pest or weed control at 250 g/ha (Avena fatua (AVEFA) [5]) | pest or weed control at 250 g/ha (Lolium perenne (LOLPE) [6]) | pest or weed control at 250 g/ha [7] | pest or weed control at 250 g/ha [8]
CCSC(=O)N1CCC(/C=C2\CC(=O)C(c3c(C)cc(C)cc3C)C2=O)C1 (stereo not shown) [Compound T33] | 60% | 60% | 60% | 70% | 50% | 90% | 90% | 60%
Cc1cc(C)c(C2C(=O)CC(CC3CCN(C(=O)c4cccs4)CC3)C2=O)c(C)c1 (stereo not shown) [Compound T110] | 40% | 30% | 50% | 80% | 30% | 50% | 70% | 30%
Cc1cc(C)c(C2C(=O)CC(CC3CCN(C(=O)c4cccs4)C3)C2=O)c(C)c1 (stereo not shown) [Compound T146] | 70% | 80% | 80% | 90% | 50% | 90% | 70% | 70%
Cc1cc(C)c(C2C(=O)CC(CC3CCN(S(C)(=O)=O)C3)C2=O)c(C)c1 (stereo not shown) [Compound T36] | 90% | 80% | 80% | 90% | 90% | 90% | 100% | 90%
CCC(=O)N1CCC(CC2CC(=O)C(c3c(C)cc(C)cc3C)C2=O)CC1 (stereo not shown) [Compound T83] | 70% | 80% | 90% | 100% | 70% | 90% | 90% | 60%
Cc1cc(C)c(C2C(=O)CC(CC3CCS(=O)(=O)CC3)C2=O)c(C)c1 (stereo not shown) [Compound T7] | 90% | 100% | 80% | 90% | 50% | 80% | 100% | 70%
Cc1cc(C)c(C2=C(OC(=O)N3CCCCC3)CC(CC3CCOC3)C2=O)c(C)c1 (stereo not shown) [Compound P29] | 30% | 80% | 100% | 70% | 20% | 90% | 0% | 50%
Cc1cc(C)c(C2C(=O)C(C)C(CC3CCOC3)C2=O)c(C)c1 (stereo not shown) [Compound T29] | 80% | 70% | 90% | 60% | 50% | 100% | 90% | 70%
COCC1(CC2CCOC2)CC(=O)C(c2c(C)cc(C)cc2C)C1=O (stereo not shown) [Compound T153] | 10% | 10% | 20% | 20% | – | – | – | –
CON1CCC(CC2CC(OC(C)=O)=C(c3c(C)cc(C)cc3C)C2=O)CC1 (stereo not shown) [Compound P50] | 100% | 100% | 100% | 100% | 100% | 100% | 100% | 100%
Cc1cc(C)c(C2C(=O)CC(CC3CCN(C(=O)N4CCCCC4)CC3)C2=O)c(C)c1 (stereo not shown) [Compound T120] | 10% | 30% | 30% | 20% | 10% | 20% | 30% | 30%
Cc1cc(C)c(C2C(=O)CC(CC3CCN(C(=O)C(C)(C)CCl)C3)C2=O)c(C)c1 (stereo not shown) [Compound T145] | 30% | 60% | 40% | 50% | 30% | 50% | 20% | 60%
Cc1cc(-c2ccc(C(F)(F)F)cc2)cc(C)c1C1C(=O)CC(CC2CCOCC2)C1=O (stereo not shown) [Compound T136] | 60% | 50% | 30% | 70% | – | – | – | –
COC1=C(c2c(C)cc(C)cc2C)C(=O)C/C1=C\C1CCOCC1 [Compound P69] | 80% | 0% | 40% | 20% | – | – | – | –
Cc1cc(C)c(C2=C(OC(=O)c3ccco3)CC(CC3CCN(C(=O)c4ccco4)C3)C2=O)c(C)c1 (stereo not shown) [Compound P62] | 70% | 70% | 80% | 70% | – | – | – | –
Cc1cc(C)c(C2C(=O)CC(CC3C[C@@H]4O[C@H]3[C@@H]3C(=O)NC(=O)[C@@H]34)C2=O)c(C)c1 (relative stereo) [Compound T127] | 20% | 20% | 20% | 10% | – | – | – | –
CCC1(CC2CCOC2)CC(=O)C(c2c(C)cc(C)cc2C)C1=O (stereo not shown) [Compound T152] | 10% | 20% | 30% | 10% | – | – | – | –
Cc1ccc(S(=O)(=O)N2CCC(CC3CC(=O)C(c4c(C)cc(C)cc4C)C3=O)CC2)cc1 (stereo not shown) [Compound T109] | – | – | – | – | 0% | 0% | 0% | 0%
Cc1cc(C)c(C2C(=O)CC(CC3CCNCC3)C2=O)c(C)c1 (stereo not shown) [Compound T53] | – | – | – | – | 0% | 40% | 0% | 30%
Cc1cc(-c2ccc(C(F)(F)F)cc2)cc(C)c1C1C(=O)C/C(=C\C2CCOCC2)C1=O (stereo not shown) [Compound T133] | 90% | 20% | 0% | 30% | – | – | – | –
Cc1cc(C)c(C2C(=O)CC(CC3CCN(C(=O)/C=C/c4ccccc4)CC3)C2=O)c(C)c1 (stereo not shown) [Compound T116] | 50% | 60% | 90% | 90% | – | – | – | –
COC1=C(c2c(C)cc(C)cc2C)C(=O)C(CC2CCOCC2)C1 (stereo not shown) [Compound P4] | 20% | 60% | 30% | 40% | – | – | – | –
Cc1cc(C)c(C2C(=O)CC(C(O)C3CCSCC3)C2=O)c(C)c1 (stereo not shown) [Compound T6] | 10% | 20% | 10% | 0% | – | – | – | –
